Laboratory results reported in patent US8124389B2, “Crystal structure of aldehyde dehydrogenase and methods of use thereof” (The Board of Trustees of the Leland Stanford Junior …, priority 2008, dated 2012).
Residue numbers refer to the chain shown, from its start. Each block holds one compound with its values, some of them ahead of it.

Columns and labels:
Format in all cases: biochemical
[1] = biological target: T1, wild-type ALDH2 (Homo sapiens, UniProt P05091); assay: Dehydrogenase activity kinetic assay (25 mM BES, pH 7.5); settings: for Hill Slope / Vmax^(app) of daidzin inhibition curve / Vmin^(app) of daidzin inhibition curve: 100 μM propionaldehyde, 0.5 mM NAD+; for Vm/Vo / Vmax^(app) / EC50: 25 mM BES, pH 7.5, 0.5 mM NAD+; for EC50: read-out: KAct^(app)
T1 construct: made in house; host or cells: E. coli
T1 sequence (P05091 18-517): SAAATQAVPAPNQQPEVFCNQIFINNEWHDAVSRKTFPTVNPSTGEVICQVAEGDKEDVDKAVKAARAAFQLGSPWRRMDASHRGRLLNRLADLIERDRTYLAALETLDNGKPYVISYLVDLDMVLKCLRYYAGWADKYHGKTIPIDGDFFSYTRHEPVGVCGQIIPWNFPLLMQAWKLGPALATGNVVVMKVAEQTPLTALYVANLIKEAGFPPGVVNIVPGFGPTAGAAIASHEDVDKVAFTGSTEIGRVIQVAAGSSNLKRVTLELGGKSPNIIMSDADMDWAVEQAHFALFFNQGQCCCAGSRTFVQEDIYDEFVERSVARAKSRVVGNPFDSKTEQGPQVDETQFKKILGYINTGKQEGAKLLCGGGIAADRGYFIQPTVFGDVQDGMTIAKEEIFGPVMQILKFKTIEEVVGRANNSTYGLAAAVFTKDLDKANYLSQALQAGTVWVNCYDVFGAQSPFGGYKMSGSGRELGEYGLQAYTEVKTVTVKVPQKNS
Method: (§1) (A) Wild-type ALDH2 at 0 μM or 10 μM Alda-1 and (B) ALDH2*2 at 0 μM or 50 μM Alda-1. NAD^+concentrations were 0.5 mM for wild-type ALDH2 and 10 mM for ALDH2*2. Lines show fits to 4-parameter logistic curve.
(§2) ALDH2 and ALDH2*2 were produced and purified using an E. coli expression system as previously described (Larson et al., 2005, J. Biol. Chem. 280, 30550-30556 and Larson et al., 2007, J. Biol. Chem., 282, 12940-12950). All enzyme assays were performed in 25 mM BES, pH 7.5 and included a final concentration of 2% (v/v) DMSO as a cosolvent in all cases whether or not Alda-1 was present. Enzyme concentrations in the dehydrogenase assays were between 0.03 and 0.06 μM for ALDH2 and between 0.3 and 0.5 μM for ALDH2*2. Esterase assays utilized 0.97 mM para-nitrophenylacetate (pNPA) as a standard substrate concentration and enzyme concentrations for 0.06 μM for ALDH2 and 0.7 μM for ALDH2*2. All kinetic data were analyzed with SigmaPlot (v10.0, StatSys). All activation data for the dehydrogenase and esterase reactions were fit to the expression v=Vo+{(Vmax[S])/(KAct+[S])}, where Vo is the initial velocity for the reaction in the absence of activator and KAct is the concentration of activator required for half-maximal activation. All single-vary experiments for Alda-1 activation utilized a minimum of 10 different concentrations across a range from 0-200 μM. […] All data represent the average of a minimum of three independent experiments with at least two different enzyme preparations.

[2] = biological target: T2, ALDH2*2 (Homo sapiens, UniProt P05091, E504K); assay: as above; settings: for Hill Slope / Vmax^(app) of daidzin inhibition curve / Vmin^(app) of daidzin inhibition curve: 100 μM propionaldehyde, 10 mM NAD+
T2 construct: made in house; host or cells: E. coli
T2 sequence (P05091 18-517 E504K): T1 sequence (P05091 18-517) with E487K
Method: as §1, §2

[3] = biological target: T3, homotetrameric mutant ALDH2*2 (Homo sapiens, UniProt P05091, E504K); assay: Enzyme activation of recombinant ALDH2 proteins by Alda-1 (FIG. 2); settings: Alda-1 at 100 μM; 20 μg recombinant protein
T3 construct: made in house
T3 sequence (P05091 18-517 E504K): T1 sequence (P05091 18-517) with E487K
Method: (§3) FIG. 2 depicts enzyme activation of homotetrameric wild type ALDH2 (homo wild type), heterotetrameric ALDH2 (hetero wild type/mutant; comprising a mixture of wild-type and mutant monomers), and homotetrameric mutant ALDH2 by Alda-1(100 μM). Enzymatic activity of recombinant ALDH2 proteins (20 μg each) is presented in percentage using homotetrameric wild type enzyme as a 100% control (n=3, **p<0.01 vs. control).
(§4) Alda-1 is an ALDH2 agonist. […] Chen et al. (2008) Science 321:1493-1495; PMID: 18787169.

[4] = biological target: T4, heterotetrameric ALDH2 (wild type/mutant) (Homo sapiens, UniProt P05091, E504K); assay: as above; settings: Alda-1 at 100 μM; 20 μg recombinant protein
T4 construct: made in house
T4 sequence (P05091 18-517): T1 sequence (P05091 18-517)
T4 sequence (P05091 18-517 E504K): T1 sequence (P05091 18-517) with E487K
Method: as §3, §4

[5] = biological target: T5, homotetrameric wild type ALDH2*1/*1 (Homo sapiens, UniProt P05091); assay: as above; settings: Alda-1 at 100 μM; 20 μg recombinant protein
T5 construct: made in house
T5 sequence (P05091 18-517): T1 sequence (P05091 18-517)
Method: as §3, §4

[6] = biological target: T1, wild-type ALDH2; assay: Esterase activity assay (p-nitrophenylacetate hydrolysis); settings: for Vmax / EC50 / Vo: 0.97 mM p-Nitrophenylacetate; for EC50: read-out: KAct^(app); for Vo: velocity in absence of activator
Method: as §2
(§5) The ability of Alda-1 to stimulate the hydrolysis of p-nitrophenylacetate both in the presence and absence of coenzyme was examined.

[7] = biological target: T2, ALDH2*2; assay: as above
Method: as §2, §5

[8] = biological target: T2, ALDH2*2; assay: Dehydrogenase activity kinetic assay (25 mM BES, pH 7.5)
[9] = fixed 50 μM Alda-1, NAD+ as varied activator, 0.97 mM p-Nitrophenylacetate

Structure (SMILES): O=c1c(-c2ccc(O)cc2)coc2cc(O[C@@H]3O[C@H](CO)[C@@H](O)[C@H](O)[C@H]3O)ccc12 [Daidzin, daidzin, reference compound]
Hill Slope ([1]; 10 μM Alda-1): 1.0 +/− 0.1 | Vmax^(app) of daidzin inhibition curve ([1]; 10 μM Alda-1): 74.9 ± 12.1 min⁻¹ | Vmin^(app) of daidzin inhibition curve ([1]; 10 μM Alda-1): 2.5 ± 5.2 min⁻¹ | Hill Slope ([1]; no Alda-1): 0.9 +/− 0.3 | Vmax^(app) of daidzin inhibition curve ([1]; no Alda-1): 61.5 ± 6.1 min⁻¹ | Vmin^(app) of daidzin inhibition curve ([1]; no Alda-1): 5.1 ± 4.7 min⁻¹ | Hill Slope ([2]; 50 μM Alda-1): 1.1 +/− 0.1 | Vmax^(app) of daidzin inhibition curve ([2]; 50 μM Alda-1): 23.0 ± 1.7 min⁻¹ | Vmin^(app) of daidzin inhibition curve ([2]; 50 μM Alda-1): 0.2 ± 0.2 min⁻¹ | Hill Slope ([2]; no Alda-1): 1.1 +/− 0.1 | Vmax^(app) of daidzin inhibition curve ([2]; no Alda-1): 11.6 ± 1.3 min⁻¹ | Vmin^(app) of daidzin inhibition curve ([2]; no Alda-1): 0.2 ± 0.6 min⁻¹

effect on ALDH2 activity with phenylacetaldehyde or DACA [1]: little effect | effect on daidzin inhibition ([1]; 10 μM Alda-1): antagonized daidzin inhibition | effect on dehydrogenase activity with aromatic aldehydes (benzaldehyde, phenylacetaldehyde, DACA) ([1]; 20 μM Alda-1, saturating concentrations of substrate, pH 7.5): minimal effects | Vm/Vo ([1]; 100 μM Acetaldehyde): 1.8 +/− 0.1 | Vmax^(app) ([1]; 100 μM Acetaldehyde): 107 ± 12 min⁻¹ | EC50 ([1]; 100 μM Acetaldehyde): 0.98 µM | Vm/Vo ([1]; 100 μM Butyraldehyde): 1.3 +/− 0.1 | Vmax^(app) ([1]; 100 μM Butyraldehyde): 86.6 ± 3.1 min⁻¹ | EC50 ([1]; 100 μM Butyraldehyde): 1.8 µM | Vm/Vo ([1]; 100 μM Propionaldehyde): 1.7 +/− 0.1 | Vmax^(app) ([1]; 100 μM Propionaldehyde): 78.5 ± 9.6 min⁻¹ | EC50 ([1]; 100 μM Propionaldehyde): 5.1 µM | effect on ALDH2 activity with phenylacetaldehyde or DACA at high concentrations ([1]; Alda-1 >100 μM): weakly inhibitory | effect on activity with benzaldehyde ([1]; up to maximum concentration used, 200 μM Alda-1): little effect | effect on daidzin inhibition ([2]; 50 μM Alda-1): antagonized daidzin inhibition | increase of enzymatic activity [3]: 11 fold | increase of enzymatic activity [4]: 2.2 fold | increase of enzymatic activity [5]: 2.1 fold | Vmax ([6]; 0.5 mM NAD+): 248 ± 22 min⁻¹ | EC50 ([6]; 0.5 mM NAD+): 2.6 µM | Vo ([6]; 0.5 mM NAD+): 96.3 ± 2.2 min⁻¹ | Vmax (second line, paired with Ki^(app)) ([6]; 0.5 mM NAD+, higher Alda-1 concentrations, antagonism with NAD+): 242 ± 14 min⁻¹ | Ki ([6]; 0.5 mM NAD+, higher Alda-1 concentrations, antagonism with NAD+, read-out: Ki^(app)): 328 µM | increase of ester hydrolysis ([6]; combined Alda-1 and NAD+): 10 fold | Vmax ([6]; no NAD+): 181 ± 6.8 min⁻¹ | EC50 ([6]; no NAD+): 3.4 µM | Vo ([6]; no NAD+): 24.9 ± 2.0 min⁻¹ | Vmax ([7]; 1.0 mM NAD+, 0.97 mM p-Nitrophenylacetate): 14.7 ± 1.3 min⁻¹ | EC50 ([7]; 1.0 mM NAD+, 0.97 mM p-Nitrophenylacetate, read-out: KAct^(app)): 11.2 µM | Vo ([7]; 1.0 mM NAD+, 0.97 mM p-Nitrophenylacetate, velocity in absence of activator): 1.36 ± 0.28 min⁻¹ | increase of ester hydrolysis ([7]; combined Alda-1 and NAD+): over 100 fold | Vmax [7, 9]: 49.5 ± 4.3 min⁻¹ | Vo [7, 9]: 0.64 ± 0.19 min⁻¹ | Vmax ([7]; no NAD+, 0.97 mM p-Nitrophenylacetate): 2.3 ± 0.2 min⁻¹ | EC50 ([7]; no NAD+, 0.97 mM p-Nitrophenylacetate, read-out: KAct^(app)): 16.1 µM | Vo ([7]; no NAD+, 0.97 mM p-Nitrophenylacetate, velocity in absence of activator): 0.40 ± 0.03 min⁻¹ | EC50 ([7]; with Alda-1, read-out: half-maximal activating concentration of NAD+ for the esterase reaction in presence of Alda-1 (lowered from 7.5 mM)): 2800 µM | EC50 ([8]; covariation NAD+ (0.5-10 mM) and Alda-1 (0 to 30 μM), non-essential activator fit, read-out: Kact): 16 ± 3 µM | decrease of apparent Km for NAD+ ([8]; covariation NAD+ and Alda-1): 6.7 fold | increase of Vmax ([8]; covariation NAD+ and Alda-1): 2 fold | β-factor (modifier on Vmax) ([8]; covariation NAD+ and Alda-1, non-essential activator fit): 2.0±0.2
Structure (SMILES): O=C(NCc1ccc2c(c1)OCO2)c1c(Cl)cccc1Cl [Alda-1, N-(1,3-benzodioxol-5-ylmethyl)-2,6-dichlorobenzamide]
